These molecules were tested against T1, CRTH2 (Homo sapiens, UniProt Q9Y5Y4) (assay: [Ca2+]i mobilization assay in 300-19 cells expressing CRTH2). Settings: CRTH2 stable cell line (300-19 transfectants).
T1 construct: prolactin (prolac) signal peptide (N); expressed in transfected cells; host or cells: 300-19 cells (transformed murine pre-B lymphocytes)
T1 sequence (Q9Y5Y4 1-395): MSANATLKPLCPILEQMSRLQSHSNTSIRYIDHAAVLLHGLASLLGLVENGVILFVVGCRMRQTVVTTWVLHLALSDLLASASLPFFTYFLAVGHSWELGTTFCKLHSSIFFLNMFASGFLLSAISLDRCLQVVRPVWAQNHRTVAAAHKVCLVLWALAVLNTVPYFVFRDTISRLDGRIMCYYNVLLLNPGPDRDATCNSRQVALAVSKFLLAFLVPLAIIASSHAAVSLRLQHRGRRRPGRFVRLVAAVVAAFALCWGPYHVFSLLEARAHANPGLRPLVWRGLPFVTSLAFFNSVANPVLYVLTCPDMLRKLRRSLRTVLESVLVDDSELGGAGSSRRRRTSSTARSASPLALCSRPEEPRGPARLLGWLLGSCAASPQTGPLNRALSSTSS
Assay type: cell-based
Text: Using 300-19 cells (transformed pre-B lymphocytes) expressing CRTH2, a number of mast cell and non-mast cell-derived mediators were screened in a [Ca^2+]i mobilization assay. […]

| EC50 [nM] | Molecule |
| --- | --- |
| 200 | PGJ2 |

What follows are molecules tested on isolated human eosinophils (assay: Reactive oxygen species (ROS) release in isolated human eosinophils). Settings: not given.
Assay type: cell-based
Experimental: Another secondary assay is the reactive oxygen species release assay. One measure of PGD2-induced activation of CRTH2 cells, such as eosinophils, is the intracellular release of reactive oxygen species. This can be tested in a reactive oxygen species release assay, or ROS, using lucigenin-dependent chemiluminescence to measure reactive oxygen species release. In this method, freshly isolated eosinophils are prepared, by standard methods, and resuspended at concentration 2-4×10^6 cells/ml in (RPMI; 10 mM HEPES; 1× Pen/Strep; 0.5% FBS) at room temperature. Immediately prior to use, 1 ml of cell suspension is added to 9 ml of buffer, prewarmed to 37° C. for 15 minutes, and added 0.5 ml of 200 mM Lucigenin.
Test compounds (made as 10,000× DMSO stocks) are diluted in buffer with DMSO (1.5 ul of DMSO/2.5 ml Buffer) and 25 μl/well added to white 96-well culture plate and placed in a 37° C. incubator. Isolated cells (held at room temperature) are diluted with room temperature buffer to 2-4×10^6 cells/ml, and incubated in a water bath at 37° C. for 15 minutes. At 15 minutes, 0.5 ml 200 mM lucigenin (bis-N-Methylacridinium Nitrate; Sigma, St. Louis, Mo.) is added to 10 ml of the cell suspension, mixed, and 100 μl/well is added to the prewarmed microtiter plate. The plate is returned to 37° C. for 5 minutes, at which time 25 μl of stimulus is added) The plate is read in the luminometer for 8 cycles. The luminescence of test compounds can be tested in the presence of PGD2, relative to a control sample containing PGD2 alone. A compound that interferes with the ability of PGD2 to result in intracellular reactive oxygen species release in CRTH2 cells, is a candidate for a CRTH2 antagonist.

| EC50 [nM] | Molecule |
| --- | --- |
| > 100 | CCCCC[C@H](O)/C=C/[C@@H]1[C@@H](C/C=C\CCCC(=O)O)[C@H]2CO[C@@H]1C2 [Compound U-46619] |
| > 1000 | CCCCC[C@H](O)/C=C/[C@@H]1[C@H]2C/C(=C/CCCC(=O)O)O[C@H]2C[C@H]1O [PG12] |
| > 100 | CCCCC[C@H](O)/C=C/[C@H]1[C@H](O)CC(=O)[C@@H]1CCCCCCC(=O)O [PGE1] |
| > 100 | CCCCC[C@H](O)/C=C/[C@@H]1[C@@H](C/C=C\CCCC(=O)O)[C@@H](O)C[C@@H]1O [Pa, 11b-PGF2] |
| 75 | PGJ2 |

What follows are molecules tested on isolated human eosinophils (assay: Chemotaxis of isolated human eosinophils). Settings: not given.
Assay type: cell-based
Experimental: In a specific example of this method, a competitive assay is performed to test compounds for their ability to interrupt the attraction of CRTH2 cells to PGD2. In this method, test compounds are diluted into the bottom wells of the Boyden chemotaxis chamber. A constant amount of PGD2 is also added to this dilution series, at a concentration known to have a chemotactic effect on CRTH2 cells. As a control, at least one aliquot contains only PGD2. Cells expressing CRTH2 are resuspended at 3-3.5×10^6 cells/ml in RPMI 1640 supplemented with 10 mM HEPES and 1 mg/ml bovine serum albumin (Sigma, St. Louis, Mo.), and placed into the upper wells of the chamber. The chambers are incubated for 90-120 minutes at 37° C. in a humidified CO2 incubator. After the incubation period, the number of migrating cells on the lower surface of the membrane filter is counted using light microscopy. The contribution of the test compound to the chemotactic activity of PGD2 is measured by comparing the chemotactic activity of the aliquots containing only PGD2 with the activity of aliquots containing test compound and PGD2. If addition of the test compound to the PGD2 solution results in a […] in the number of cells detected on the lower surface of the membrane relative to the number of cells detected using a solution containing only PGD2, then there is identified an antagonist of PGD2 induction of chemotactic activity of cells expressing CRTH2. In contrast, if the addition of the test compound to the PGD2 solution results in a […] in the number of cells detected on the lower surface of the membrane (relative to the number of cells detected using a solution containing only PGD2), then an […] of PGD2 induction of chemotactic activity of cells expressing CRTH2 is identified.
The chemotactic response of human T lymphocytes to PGD2, murine MDC and murine mSDF was also assayed. Chemotaxis was determined using a 48-well Boyden chamber (Neuroprobe, Cabin John, Md.), and 3.0 μm polycarbonate filters. Cells were resuspended (3-3.5×10^6 cells/ml) in RPMI 1640 supplemented with 10 mM HEPES and 1 mg/ml bovine serum albumin (Sigma, St. Louis, Mo.), and placed into the upper wells of the chamber. The compound to be tested was placed in the lower wells. The chambers were incubated for 90-120 minutes at 37° C. in a humidified CO2 incubator. At the end of the incubation period, the number of migrating cells on the filter (expressed per high power field) were enumerated microscopically. […] In FIG. 4, the chemotactic response of human basophils to PGD2 and C5a is shown.

| EC50 [nM] | Molecule |
| --- | --- |
| > 100 | CCCCC[C@H](O)/C=C/[C@@H]1[C@H]2C/C(=C/CCCC(=O)O)O[C@H]2C[C@H]1O [PG12] |
| > 100 | CCCCC[C@H](O)/C=C/[C@H]1[C@H](O)CC(=O)[C@@H]1CCCCCCC(=O)O [PGE1] |
| > 100 | CCCCC[C@H](O)/C=C/[C@@H]1[C@@H](C/C=C\CCCC(=O)O)[C@@H](O)C[C@@H]1O [Pa, 11b-PGF2] |
| > 100 | PGJ2 |

Each molecule was assayed on human whole blood eosinophil (assay: Human whole blood eosinophil actin-polymerization response). Settings: read-out: Actin-polymer EC50.
Assay type: cell-based
Text: Yet another secondary screening assay is an actin polymerization assay. Another biological effect of the interaction of PGD2 with CRTH2 is actin polymerization. Thus, an actin polymerization assay may be used as a secondary screen to characterize the activity of a compound isolated in the primary screening assays of the invention. In one embodiment, actin polymerization may be assayed using an actin-specific fluorescent label, nitrobenzoxadiazole (NBD)-phallacidin, which binds polymerized actin fiber. In a specific embodiment, the assay may be performed as follows: cell preparations are resuspended at 5-10×10^6 cells/ml in RPMI 1640 plus 10 mM HEPES, 100/10 Pen/Strep, and 0.5% FCS. The cell suspension is aliquoted (100 μL per well) into a 96-well U-bottom polypropylene microtiter plate. 50 ul of the appropriate stimulus (PGD2 or test compound, or both PGD2 and test compound) is added using an 8-channel pipette followed exactly 25 seconds later by 50 ul of a stopping solution which contains lysophosphotidylcholine (0.5 mg/ml), Hank's balanced salt solution (100 ul 10×), 16% formaldehyde (800 ul), and 6.6 uM NBD-phallacidin in MEOH (100 ul). The plate is allowed to sit at room temperature for 15 minutes. The plate is then centrifuged at 1000 rpm for 5 minutes, the supernatants flicked off and the cell pellets resuspended in 250 ul PBS plus 2%FCS and 0.2% sodium azide. Each sample is then read on a FACS Caliber instrument. Cells are gated using the forward scatter/side scatter data in the lymphocyte area. Responses are measured by the change in median FL-1 fluorescence between vehicle treated cells and stimulus treated cells. Test compounds can be assayed in the presence and absence of PGD2, and compared to a sample containing PGD2 alone. A compound that reduces PGD2-induced actin polymerization of CRTH2 cells is identified as a candidated CRTH2 antagonist.

| EC50 [nM] | Molecule |
| --- | --- |
| > 100000 | CCCCC[C@H](O)/C=C/[C@@H]1[C@H]2C/C(=C/CCCC(=O)O)O[C@H]2C[C@H]1O [PG12] |
| > 100000 | CCCCC[C@H](O)/C=C/[C@H]1[C@H](O)CC(=O)[C@@H]1CCCCCCC(=O)O [PGE1] |
| > 1000 | CCCCC[C@H](O)/C=C/[C@@H]1[C@@H](C/C=C\CCCC(=O)O)[C@@H](O)C[C@@H]1O [Pa, 11b-PGF2] |
| 1800 | PGJ2 |

These molecules were tested on isolated human eosinophils (assay: [Ca2+]i mobilization in isolated human eosinophils). Settings: not given.
Assay type: cell-based
Text: Calcium mobilization can be detected and measured by flow cytometry, and by labeling with fluorescent dyes that are trapped intracellularly. […] The ratio of fluorescence produced by the calcium-bound dye to that produce by the unbound dye is used to estimate the intracellular calcium concentration. In one embodiment, for example, the following method can be used. Cells that express CRTH2 are collected, and resuspended in fresh media at ˜2×10^5/ml the day before performing the calcium flux assay. Cells are incubated at 37° C. for not longer than 20-30 minutes, and then spun down and resuspended in 50 ml fresh PTI buffer (Hank's Buffer, pH 7.2-7.4; 10 mM Hepes; 1.6 mM CaCl2) containing Indo-1 AM, pre-warmed to 37° C., at a concentration of 10 million per ml. Cells are excited, and fluorescence is measured using a fluorimeter (Photon Technology Corporation, International). After the readout has stabilized, the time axis is reset, and PGD2 is added at a specific time point (e.g., 20 seconds). After response, the following reagents are added to the cuvette, to release and chelate total calcium, in the following order: 20 μl of 18% Triton X-100, 20 μl of 3M Tris, pH 8.5, and 20 μl of 0.5 M EGTA, pH 8.5. The experiment is repeated in the presence and the absence of a test compound. […] Therefore, in the presence of an […] test compound, the EC50 would be expected to be higher than this value, whereas in the presence of an agonist test compound, the EC50 would be expected to decrease.

| EC50 [nM] | Molecule |
| --- | --- |
| > 1000 | CCCCC[C@H](O)/C=C/[C@@H]1[C@@H](C/C=C\CCCC(=O)O)[C@H]2CO[C@@H]1C2 [Compound U-46619] |
| > 1000 | CCCCC[C@H](O)/C=C/[C@@H]1[C@H]2C/C(=C/CCCC(=O)O)O[C@H]2C[C@H]1O [PG12] |
| > 1000 | CCCCC[C@H](O)/C=C/[C@H]1[C@H](O)CC(=O)[C@@H]1CCCCCCC(=O)O [PGE1] |
| 130 | PGJ2 |

These molecules were tested against T1, CRTH2 (assay: Competition with 3H-PGD2 binding at the CRTH2 receptor (Examples 6-9)). Settings: from IC50 at CRTH2 and at DP.
Experimental: To directly determine the binding affinity of CRTH2 for PGD2, the following binding assay was used. Transfected and parental 300-19 cells were washed twice at room temperature with assay buffer, and resuspended at a concentration of 2×10^7 cells/ml. Using a 96-well U-bottom polypropylene plate (Costar, Corning Inc., Acton, Mass.), the assay was set up as follows: 50 μl of vehicle (0.3% DMSO in assay buffer, total wells) or of […] cold PGD2 (NS wells); 50 μl cells (2×10^7 cells/ml for 10^6 cells per well); 50 μl 6 nM [3H]-PGD2. The plate was allowed to incubate for 20 min at RT before centrifugation (2800 rpm, Sorval RT6000, 5 min, 4° C.). The plate was harvested (Packard Unifilter plate GF/C, previously soaked in 3% PEI for at least 1 hr) with cold assay buffer using a Packard Filtermate Cell Harvester (6×150 μl buffer wash per well). The filterplate was dried overnight. After the addition of 50 μl scintillation fluid (Packard Microscint 0), the plate was counted in a Packard Topcount scintillation counter (1 min per well). […] The solutions of labeled PGD2 and unlabeled “cold” PGD2 were prepared as follows: 10 μl of [^3H]-PGD2 (Amersham lot # TRK734 162 Ci/mmol, 0.1 Ci/ml in methanol: water: acetonitrile (3:2:1), 617 nM) per ml assay buffer was used to prepare a solution of [^3H]-PGD2 at a concentration of 6 nM (50 μl/well for final conc. of 2 nM); cold PGD2 (Biomol #PG-005, lot # P4653) was dissolved in DMSO for a stock of 10 mM (stored at −20° C.). The 10 mM stock was diluted 3:1000 to obtain a final concentration of […] (50 μl/well for final conc. of […]). Assay buffer: Hank's balanced saline supplemented with HEPES and sodium bicarbonate: 100 ml/L of 10× Hank's Balanced saline (with Ca^+2, Mg^+2); 10 ml/L of 1M HEPES; 4.7 ml/L of 7.5% Sodium Bicarbonate.
In the assay, the capacity of each D-ring compound to compete with binding of ^3H-PGD2 was measured at both the CRTH2 and DP receptors, and an IC50 value (in μM) was determined. […] The binding assay procedure of Example 1 was used. Preferably, the ratio of IC50 at CRTH2 to IC50 at DP is less than about twenty, and more preferably is […].

| selectivity for the CRTH2 receptor (in comparison with DP) | Molecule |
| --- | --- |
| particularly selective for CRTH2 | CCCCCC(=O)CCC1C(=O)CC(O)C1C/C=C\CCCC(=O)O (stereo not drawn) [13,14-dihydro-15-keto PGD2] |
| particularly selective for CRTH2 | CCCCC[C@@](C)(O)/C=C/[C@H]1C(=O)C[C@H](O)[C@@H]1C/C=C\CCCC(=O)O [15(R)15-methyl PGD2] |
| particularly selective for CRTH2 | CCCCC/C=C\C=C1\C(=O)CC(O)C1C/C=C\CCCC(=O)O (stereo not drawn) [15-deoxy-delta 12, 14, PGD2] |
